Laboratory results as given in patent US20040106626A1, “6-Membered unsaturated heterocyclic compounds useful for selective inhibition of the coagulation cascade” (Pharmacia Corporation, priority 2001, published 2004).

What was measured:
Type in all cases: biochemical
[1] = target: T1, recombinant soluble tissue factor and recombinant human factor VIIa (TF-VIIa) (Homo sapiens, UniProt P08709); assay: TF-VIIa assay (chromogenic substrate hydrolysis); details: reported only as less than or greater than 0.1 uM
T1 construct: conversion of coagulation factor VII to VIIa by factor Xa; purchased American Diagnostica, Greenwich CT; host or cells: soluble TF made in house in E. coli
T1 sequence (P08709 213-466 limits assumed): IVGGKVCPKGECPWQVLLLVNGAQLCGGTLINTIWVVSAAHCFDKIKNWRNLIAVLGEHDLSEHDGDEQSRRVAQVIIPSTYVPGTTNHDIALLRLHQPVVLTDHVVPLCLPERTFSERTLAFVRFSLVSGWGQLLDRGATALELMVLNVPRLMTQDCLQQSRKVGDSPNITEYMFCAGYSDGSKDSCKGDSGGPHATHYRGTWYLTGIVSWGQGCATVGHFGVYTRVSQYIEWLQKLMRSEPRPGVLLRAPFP
T1 sequence (P08709 61-212 limits assumed): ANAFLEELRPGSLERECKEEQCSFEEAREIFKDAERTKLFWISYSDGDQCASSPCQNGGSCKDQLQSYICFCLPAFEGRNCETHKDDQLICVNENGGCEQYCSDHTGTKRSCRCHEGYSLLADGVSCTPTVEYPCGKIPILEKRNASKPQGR
T1 sequence (P13726 33-251 partner limits assumed): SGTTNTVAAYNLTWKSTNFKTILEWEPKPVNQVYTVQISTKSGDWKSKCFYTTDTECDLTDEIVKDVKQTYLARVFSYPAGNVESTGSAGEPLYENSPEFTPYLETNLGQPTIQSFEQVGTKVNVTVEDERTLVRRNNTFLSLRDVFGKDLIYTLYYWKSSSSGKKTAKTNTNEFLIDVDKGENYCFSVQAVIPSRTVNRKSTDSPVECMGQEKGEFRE
Protocol: In this assay 100 nM recombinant soluble tissue factor and 2 nM recombinant human factor VIIa are added to a 96-well assay plate containing 0.4 mM of the substrate, N-methylsulfonyl-D-phe-gly-arg-p-nitroaniline and either inhibitor or buffer (5 mM CaCl2, 50 mM Tris-HCl, pH 8.0, 100 mM NaCl, 0.1% BSA). […] Percent inhibition of TF-VIIa activity is calculated from OD405 nm value from the experimental and control sample.
(§1) Recombinant human VIIa was purchased from American Diagnostica, Greenwich CT and chromogenic substrate N-methylsulfonyl-D-phe-gly-arg-p-nitroaniline was prepared by American Peptide Company, Inc., Sunnyvale, Calif. Factor Xa was obtained from Enzyme Research Laboratories, South Bend Ind., thrombin from Calbiochem, La Jolla, Calif., and trypsin and L-BAPNA from Sigma, St. Louis Mo.

Human factor Xa = target: T2, Human factor Xa (Homo sapiens, UniProt P00742); assay: Xa assay (chromogenic substrate S-2765); details: reported only as less than or greater than 30 uM; read-out: Factor Xa (II) IC50
T2 construct: purchased Enzyme Research Laboratories, South Bend Ind
T2 sequence (P00742 235-488 limits assumed): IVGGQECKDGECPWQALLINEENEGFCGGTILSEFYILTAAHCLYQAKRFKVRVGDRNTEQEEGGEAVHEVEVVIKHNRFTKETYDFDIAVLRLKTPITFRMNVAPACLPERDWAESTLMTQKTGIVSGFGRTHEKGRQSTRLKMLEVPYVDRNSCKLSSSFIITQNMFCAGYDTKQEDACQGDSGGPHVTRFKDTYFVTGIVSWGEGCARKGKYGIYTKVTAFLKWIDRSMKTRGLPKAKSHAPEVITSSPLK
T2 sequence (P00742 41-179 limits assumed): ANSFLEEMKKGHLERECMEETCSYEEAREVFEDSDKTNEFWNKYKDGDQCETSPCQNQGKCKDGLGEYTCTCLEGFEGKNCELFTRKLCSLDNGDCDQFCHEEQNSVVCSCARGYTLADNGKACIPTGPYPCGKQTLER
Protocol: Human factor Xa (0.3 nM) and 0.15 mM -a-Benzyloxycarbonyl-D-arginyl-L-glycyl-L-arginine-p-nitroaniline-dihydrochloride (S-2765) are added to a 96-well assay plate containing either inhibitor or buffer (50 mM Tris-HCl, pH 8.0, 100 mM NaCl, 0.1% BSA). The reaction, in a final volume of 100 ul is measured immediately at 405 nm to determine background absorbance. The plate is incubated at room temperature for 60 min, at which time the rate of hydrolysis of the substrate is measured by monitoring the reaction at 405 nm for the release of p-nitroaniline. Percent inhibition of Xa activity is calculated from OD405 nm value from the experimental and control sample.
Recombinant soluble TF, consisting of amino acids 1-219 of the mature protein sequence was expressed in E. coli and purified using a Mono Q Sepharose FPLC. Recombinant human VIIa was purchased from American Diagnostica, Greenwich CT and chromogenic substrate N-methylsulfonyl-D-phe-gly-arg-p-nitroaniline was prepared by American Peptide Company, Inc., Sunnyvale, Calif. Factor Xa was obtained from Enzyme Research Laboratories, South Bend Ind., thrombin from Calbiochem, La Jolla, Calif., and trypsin and L-BAPNA from Sigma, St. Louis Mo. The chromogenic substrates S-2765 and S-2238 were purchased from Chromogenix, Sweden.

Human thrombin = target: T3, Human thrombin (Homo sapiens, UniProt P00734); assay: Thrombin assay (chromogenic substrate); details: reported only as less than or greater than 30 uM; read-out: Thrombin (II) IC50
T3 construct: converts prothrombin (II) to thrombin (IIa); purchased Calbiochem, La Jolla, Calif
Protocol: Percent inhibition of thrombin activity is calculated from OD405 nm value from the experimental and control sample.
as §1

[2] = system: Normal human pooled plasma; assay: Prothrombin time (PT) clotting assay; details: concentration at which prothrombin time is prolonged by 2x normal, reported as less than or greater than 50 uM
Protocol: The prothrombin time (PT) assay is a clotting assay that is used to determine deficiencies of clotting factor activity in the extrinsic pathway. The assay measures time to clotting after the addition of thromboplastin (human tissue factor). Normal human pooled plasma is incubated with 100 uM compound or saline in a coagulation machine. Thromboplastin is added and time to clotting is measured. Compounds with greater than 3×normal PT of 11.0 seconds are further analyzed by concentration response to determine at what concentration the prothrombin time is prolonged by 2×normal.

Row | SMILES | IC50 [1] [µM] | IC50 (Human factor Xa) [µM] | IC50 (Human thrombin) [µM] | PT (Prothrombin time) 2xPT [2] [µM]
1 | CC(C)Nc1ncc(-c2cc(N)cc(C(=O)NC(C)c3ccccc3)c2)n(CC(=O)NCc2ccc(C(=N)N)cc2)c1=O (racemic) [Example 56] | < 0.1 | > 30 | < 30 | <50.0
2 | CC(C)Nc1nc(Br)c(-c2cc(N)cc(C(=O)O)c2)n(CC(=O)NCc2ccc(C(=N)N)cc2)c1=O [Example 3, 3-Amino-5-[1-[2-({4-[amino(imino)methyl]benzyl}amino)-2-oxoethyl]-3-bromo-5-(isopropylamino)-6-oxo-1,6-dihydropyrazin-2-yl]benzoic Acid] | < 0.1 | > 30 |  | <50.0
3 | COC(=O)c1cc(N)cc(-c2c(Br)nc(NC(C)C)c(=O)n2CC(=O)NCc2ccc(C(=N)N)cc2)c1 [Example 4, Methyl 3-amino-5-[1-[2-({4-[amino(imino)methyl]benzyl}amino)-2-oxoethyl]-3-bromo-5-(isopropylamino)-6-oxo-1,6-dihydropyrazin-2-yl]benzoate] | < 0.1 | > 30 | > 30 | >50.0
4 | CC(C)CCNC(=O)c1cc(N)cc(-c2cnc(NC(C)C)c(=O)n2CC(=O)NCc2ccc(C(=N)N)cc2)c1.O=C(O)C(F)(F)F.O=C(O)C(F)(F)F [Example 6] | < 0.1 | > 30 | > 30 | <50.0
5 | CCC(C)NC(=O)c1cc(N)cc(-c2cnc(NC(C)C)c(=O)n2CC(=O)NCc2ccc(C(=N)N)cc2)c1.O=C(O)C(F)(F)F.O=C(O)C(F)(F)F (stereo not drawn) [Example 7] | < 0.1 | > 30 | < 30 | <50.0
6 | CC(C)Nc1ncc(-c2cc(N)cc(C(=O)NCc3cccc(C(F)(F)F)c3)c2)n(CC(=O)NCc2ccc(C(=N)N)cc2)c1=O.O=C(O)C(F)(F)F.O=C(O)C(F)(F)F [Example 10] | < 0.1 | > 30 | > 30 | <50.0
7 | CC(C)Nc1ncc(-c2cc(N)cc(C(=O)NC3CCC3)c2)n(CC(=O)NCc2ccc(C(=N)N)cc2)c1=O.O=C(O)C(F)(F)F.O=C(O)C(F)(F)F [Example 15] | < 0.1 | > 30 | < 30 | <50.0
8 | CC(C)Nc1ncc(-c2cc(N)cc(C(F)(F)F)c2)n(CC(=O)NCc2ccc(C(=N)N)cc2)c1=O [Example 18] | < 0.1 | > 30 | > 30 | <50.0
9 | CC(C)Nc1ncc(-c2cc(N)cc(C(=O)NCc3ccccc3)c2)n(CC(=O)NCc2ccc(C(=N)N)cc2)c1=O.O=C(O)C(F)(F)F.O=C(O)C(F)(F)F [Example 24] | < 0.1 | > 30 | > 30 | <50.0
10 | CC(C)Nc1ncc(-c2cc(N)cc(C(=O)N(C)Cc3ccccc3)c2)n(CC(=O)NCc2ccc(C(=N)N)cc2)c1=O.O=C(O)C(F)(F)F.O=C(O)C(F)(F)F [Example 28] | < 0.1 | > 30 | > 30 | <50.0
11 | CNc1ncc(-c2cc(N)cc(N)c2)n(CC(=O)NCc2ccc(C(=N)N)cc2)c1=O [Example 35] | < 0.1 | > 30 | > 30 | <50.0
12 | CC(C)Nc1ncc(-c2cc(N)cc(C(F)(F)F)c2)n(CC(=O)NCc2ccc(C(=N)N)c(O)c2)c1=O [Example 49] | > 0.1 | > 30 | > 30 | <50.0
13 | CC(C)Nc1ncc(-c2cc(N)cc(NC(=O)C(C)C)c2)n(CC(=O)NCc2ccc(C(=N)N)cc2)c1=O [Example 50, N-{3-amino-5-[1-[2-({4-[amino(imino)methyl]benzyl}amino)-2-oxoethyl]-5-(isopropylamino)-6-oxo-1,6-dihydropyrazin-2-yl]phenyl}-2-methylpropanamide] | < 0.1 | > 30 | < 30 | <50.0
14 | CC(C)Nc1ncc(-c2cc(N)cc(C(F)(F)F)c2)n(CC(=O)NCc2ccc(C(=N)N)c(F)c2F)c1=O [Example 51] | > 0.1 | > 30 | > 30 | <50.0
15 | COc1cc(N)cc(-c2cnc(NC(C)C)c(=O)n2CC(=O)NCc2ccc(C(=N)N)cc2)c1 [Example 53, N-{4-[Amino(imino)methyl]benzyl}-2-[6-(3-amino-5-methoxyphenyl)-3-(isopropylamino)-2-oxopyrazin-1 (2H)-yl]acetamide] | < 0.1 | > 30 | > 30 | <50.0
16 | CC(C)Nc1ncc(-c2cc(N)cc(O)c2)n(CC(=O)NCc2ccc(C(=N)N)cc2)c1=O [Example 54] | < 0.1 | > 30 | > 30 | <50.0
17 | CC(C)Nc1ncc(-c2cc(N)cc(C(=O)N[C@@H](C)c3ccccc3)c2)n(CC(=O)NCc2ccc(C(=N)N)cc2)c1=O [Example 57] | < 0.1 | > 30 | < 30 | <50.0
18 | CC(C)Nc1ncc(-c2cc(N)cc(C(=O)N[C@H](C)c3ccccc3)c2)n(CC(=O)NCc2ccc(C(=N)N)cc2)c1=O [Example 58] | < 0.1 | > 30 | < 30 | <50.0
19 | CC(C)Nc1ncc(-c2cc(N)cc(C(=O)NCc3cc(C(F)(F)F)cc(C(F)(F)F)c3)c2)n(CC(=O)NCc2ccc(C(=N)N)cc2)c1=O [Example 59] | > 0.1 | > 30 | > 30 | >50.0
20 | CC(C)Nc1ncc(-c2cc(N)cc(C(=O)NCc3cccnc3)c2)n(CC(=O)NCc2ccc(C(=N)N)cc2)c1=O [Example 61] | < 0.1 | > 30 | > 30 | <50.0
21 | CC(C)Nc1ncc(-c2cc(N)cc(C(=O)NCCCc3ccccc3)c2)n(CC(=O)NCc2ccc(C(=N)N)cc2)c1=O [Example 62] | < 0.1 | > 30 | < 30 | <50.0
22 | CC[C@H](C)NC(=O)c1cc(N)cc(-c2cnc(NC(C)C)c(=O)n2CC(=O)NCc2ccc(C(=N)N)cc2)c1 [Example 71] |  |  | < 30 | <50.0
23 | CC(C)Nc1nc(Cl)c(-c2cc(N)cc(O)c2)n(CC(=O)NCc2ccc(C(=N)N)cc2)c1=O.O=C(O)C(F)(F)F [Example 178] | < 0.1 | > 30 |  | <50.0
24 | CC[C@H](C)NC(=O)c1cc(N)cc(-c2cnc(NC3CC3)c(=O)n2CC(=O)NCc2ccc(C(=N)N)cc2)c1.O=C(O)C(F)(F)F.O=C(O)C(F)(F)F [Example 184] |  |  | < 30 | <50.0
25 | CC(C)Nc1ncc(-c2cc(N)c3[nH]ccc3c2)n(CC(=O)NCc2ccc(C(=N)N)cc2)c1=O.O=C(O)C(F)(F)F.O=C(O)C(F)(F)F [Example 249] | < 0.1 |  | > 30 | <50.0
26 | N=C(N)c1ccc(CNC(=O)Cn2c(-c3cc(N)cc(C(=O)OCc4ccccc4)c3)cnc(NC3CC3)c2=O)cc1.O=C(O)C(F)(F)F [Example 251] | < 0.1 |  | > 30 | <50.0
27 | CC[C@@H](C)NC(=O)c1cc(N)cc(-c2cnc(NC(C)C)c(=O)n2CC(=O)NCc2ccc(C(=N)N)c(O)c2)c1.O.O.O=C(O)C(F)(F)F [Example 254] | < 0.1 |  | > 30 | <50.0
